The numbers were not newly measured in PMC6974622, “DeepMalaria: Artificial Intelligence Driven Discovery of Potent Antiplasmodials” (Frontiers in Pharmacology, 2020), which cites them from elsewhere.

Where “and” joins values, the source holds several entries; their conditions need not be identical. Equal values may be shown once. Read-outs that look alike come from different tables or passages of the source.

In this data set the test system is 3D7. Details: unit not given here. Particulars: cited from earlier work.
The mark [1] stands for this setting: repurposing dataset, 179 approved drugs, ref https://www.nature.com/articles/nchembio806.

In the case of `COc1cccc2c1C(=O)c1c(O)c3c(c(O)c1C2=O)C[C@@](O)(C(=O)CO)C[C@@H]3O[C@H]1C[C@H](N)[C@H](O)[C@H](C)O1` [Doxorubicin], the 3D7 under setting [1] was 99.5. With `O=c1oc2c(O)c(O)cc3c(=O)oc4c(O)c(O)cc1c4c23` [Ellagic acid], the 3D7 under setting [1] is 87.1. As to `CC[C@H]1CN2CCc3cc(OC)c(OC)cc3[C@@H]2C[C@@H]1C[C@H]1NCCc2cc(OC)c(OC)cc21` [Emetine], the 3D7 under setting [1] is 98.3. On to `COc1cccc2c1C(=O)c1c(O)c3c(c(O)c1C2=O)C[C@@](O)(C(=O)CO)C[C@@H]3O[C@H]1C[C@H](N)[C@@H](O)[C@H](C)O1` [Epirubicin], for which, under setting [1], the 3D7 is 98.4. Regarding `CNC(=O)Oc1ccc2c(c1)[C@]1(C)CCN(C)[C@@H]1N2C` [Eserine], the 3D7 under setting [1] is 79.2. Consider `CCOc1ccc2nc3cc(N)ccc3c(N)c2c1` [Ethacridine lactate], for which the 3D7 under setting [1] is 96.2. Regarding `O=c1[nH]cc(F)c(=O)[nH]1` [Fluorouracil], the 3D7 under setting [1] is recorded as 89.2.

Regarding `Fc1ccc(C(c2ccccc2)(c2ccccc2F)n2ccnc2)cc1` (stereo not drawn) [Flutrimazole], the 3D7 under setting [1] is reported as 85.2. Take `COc1cc2ncnc(Nc3ccc(F)c(Cl)c3)c2cc1OCCCN1CCOCC1` [Geftinib]: the 3D7 is 67.6. Regarding `Nc1ccn([C@@H]2O[C@H](CO)[C@@H](O)C2(F)F)c(=O)n1` [Gemcitabine], the 3D7 under setting [1] is given as 75.3. Take `CN(C)c1ccc(C(=C2C=CC(=[N+](C)C)C=C2)c2ccc(N(C)C)cc2)cc1` [Gentian violet]: the 3D7 under setting [1] is reported as 98.7. Take `N=C(N)N/N=C/c1c(Cl)cccc1Cl` [Guanabenz acetate]: the 3D7 under setting [1] was 92.7. On to `CCCCC(CC)CN1CN(CC(CC)CCCC)CC(C)(N)C1` (stereo not drawn) [Hexetidine], for which the 3D7 under setting [1] is recorded as 86.2. Regarding `CC[n+]1c(-c2ccccc2)c2cc(N)ccc2c2ccc(N)cc21` [Homidium bromide], the 3D7 under setting [1] is on record as 98.9.

On to `CCN(CCO)CCCC(C)Nc1ccnc2cc(Cl)ccc12` (stereo not drawn) [Hydroxychloroquine], for which, under setting [1], the 3D7 was 97.7. Regarding `CC(=O)[C@]1(O)Cc2c(O)c3c(c(O)c2[C@@H](O[C@H]2C[C@H](N)[C@H](O)[C@H](C)O2)C1)C(=O)c1ccccc1C3=O` [Idarubicin], under setting [1], the 3D7 is 98.9. For `CC(C(O)c1ccc(O)cc1)N1CCC(Cc2ccccc2)CC1` (stereo not drawn) [Ifenprodil], the 3D7 under setting [1] was 82.3. Consider `CC[C@@H](C(=O)[C@@H](C)[C@@H](O)[C@H](C)CCc1ccc(C)c(O)c1C(=O)O)[C@H]1O[C@](CC)([C@H]2CC[C@](O)(CC)[C@H](C)O2)C[C@@H]1C` [Lasalocid A], for which, under setting [1], the 3D7 is on record as 98.2. As to `CN(C)C(=O)C(CCN1CCC(O)(c2ccc(Cl)cc2)CC1)(c1ccccc1)c1ccccc1` [Loperamide], under setting [1], the 3D7 was 97.7. On to `Cc1cccc(C)c1OCC(=O)N[C@@H](Cc1ccccc1)[C@@H](O)C[C@H](Cc1ccccc1)NC(=O)[C@H](C(C)C)N1CCCNC1=O` [Lopinavir], for which the 3D7 under setting [1] was 84.9.

Consider `CN(C)c1ccc(C(=C2C=CC(=[N+](C)C)C=C2)c2ccccc2)cc1` [Malachite green], for which the 3D7 is 86.9. With `[Cl][Mn][Cl]` [Manganese chloride], under setting [1], the 3D7 is given as 94.1.

Consider `CNCCCC12CCC(c3ccccc31)c1ccccc12` [Maprotiline], for which the 3D7 is reported as 62.7. On to `CN1CCc2c(c3ccccc3n2Cc2ccccc2)C1` [Mebhydrolin], for which, under setting [1], the 3D7 was 57.1.

As to `OC(c1cc(C(F)(F)F)nc2c(C(F)(F)F)cccc12)C1CCCCN1` (stereo not drawn) [Mefloquine], the 3D7 under setting [1] was 97.7.

Take `N[C@@H](Cc1ccc(N(CCCl)CCCl)cc1)C(=O)O` [Melphalan]: the 3D7 under setting [1] was 59.5. With `S=c1[nH]cnc2nc[nH]c12` [Mercaptopurine], the 3D7 under setting [1] is recorded as 91.8.

Turning to `CN1C[C@H](CNC(=O)OCc2ccccc2)C[C@@H]2c3cccc4c3c(cn4C)C[C@H]21` [Metergoline], the 3D7 under setting [1] is 85.9. As to `CN(Cc1cnc2nc(N)nc(N)c2n1)c1ccc(C(=O)N[C@@H](CCC(=O)O)C(=O)O)cc1` [Methotrexate], the 3D7 under setting [1] is 98.4.

Turning to `Cc1cc(C(C)(C)CC(C)(C)C)ccc1OCCOCC[N+](C)(C)Cc1ccccc1.[Cl-]` [Methylbenzethonium chloride], under setting [1], the 3D7 is 97.7.

Turning to `CN(C)c1ccc2nc3ccc(=[N+](C)C)cc-3sc2c1` [Methylene blue], the 3D7 under setting [1] is 98. As to `COCC(=O)O[C@]1(CCN(C)CCCc2nc3ccccc3[nH]2)CCc2cc(F)ccc2[C@@H]1C(C)C` [Mibefradil], the 3D7 under setting [1] is reported as 92. As to `CCCCCCCCCCCCCCCCOP(=O)([O-])OCC[N+](C)(C)C` [Miltefosine], the 3D7 under setting [1] is reported as 99.5. Regarding `O=C1c2c(O)ccc(O)c2C(=O)c2c(NCCNCCO)ccc(NCCNCCO)c21` [Mitoxantrone], the 3D7 under setting [1] is 99.2 and 98.4. For `COc1c(C)c2c(c(O)c1C/C=C(\C)CCC(=O)O)C(=O)OC2` [Mycophenolic acid], the 3D7 under setting [1] is 92.7. Take `COC(=O)C1=C(C)NC(C)=C(C(=O)OCCCN2CCC(c3ccccc3)(c3ccccc3)CC2)[C@H]1c1cccc([N+](=O)[O-])c1` [Niguldipine]: the 3D7 is 89.3. For the compound `O=[N+]([O-])c1ccc(O)c2ncccc12` [Nitroxoline], under setting [1], the 3D7 is recorded as 97.2.

Regarding `COC(=O)[C@@H]1c2cc3c(c(O)c2[C@@H](O[C@@H]2O[C@@H](C)[C@H](OC)[C@@](C)(OC)[C@H]2OC)C[C@]1(C)O)C(=O)c1c(O)cc2c(c1C3=O)O[C@@H]1O[C@@]2(C)[C@H](O)[C@@H](N(C)C)[C@@H]1O` [Nogalamycin], the 3D7 under setting [1] is reported as 85.3.

As to `O=C1[O][Pt]2([NH][C@@H]3CCCC[C@H]3[NH]2)[O]C1=O` [Oxaliplatin], the 3D7 under setting [1] was 55.4. On to `CC(=O)O[C@H]1C(=O)[C@@]2(C)[C@H]([C@H](OC(=O)c3ccccc3)[C@]3(O)C[C@H](OC(=O)[C@H](O)[C@@H](NC(=O)c4ccccc4)c4ccccc4)C(C)=C1C3(C)C)[C@]1(OC(C)=O)CO[C@@H]1C[C@@H]2O` [Paclitaxel], for which the 3D7 under setting [1] is listed as 84.5. On to `CC(=O)O[C@H]1C[C@@H]2CC[C@@H]3[C@H](CC[C@@]4(C)[C@H]3C[C@H]([N+]3(C)CCCCC3)[C@@H]4OC(C)=O)[C@@]2(C)C[C@@H]1[N+]1(C)CCCCC1` [Pancuronium bromide], for which, under setting [1], the 3D7 was 52.6. `N=C1C=CC(=C(c2ccc(N)cc2)c2ccc(N)cc2)C=C1` [Pararosaniline pamoate]: the 3D7 under setting [1] is recorded as 97.3. Take `Fc1ccc([C@@H]2CCNC[C@H]2COc2ccc3c(c2)OCO3)cc1` [Paroxetine]: the 3D7 under setting [1] was 85.4. For the compound `N=C(N)c1ccc(OCCCCCOc2ccc(C(=N)N)cc2)cc1` [Pentamidine isethionate], under setting [1], the 3D7 is given as 99.1.

Consider `C1CCC(C(CC2CCCCN2)C2CCCCC2)CC1.O=C(O)/C=C\C(=O)O` (stereo not drawn) [Perhexilline maleate], for which the 3D7 under setting [1] is recorded as 97.5. Turning to `OCCN1CCN(CCCN2c3ccccc3Sc3ccc(Cl)cc32)CC1` [Perphenazine], the 3D7 under setting [1] is 85.6. `CN1CCC(=C2c3ccccc3Sc3ccccc32)CC1` [Pimethixene]: under setting [1], the 3D7 was 75.5. Consider `CC(=O)c1ccc2c(c1)N(CCCN1CCC(CCO)CC1)c1ccccc1S2` [Piperacetazine], for which the 3D7 under setting [1] is reported as 88.5. Regarding `O.O.O.O=C([O-])[C@H]([O-])[C@@H]([O-])C(=O)[O-].O=C([O-])[C@H]([O-])[C@@H]([O-])C(=O)[O-].[K+].[K+].[Sb+3].[Sb+3]` [Potassium antimonyl tartrate], the 3D7 under setting [1] is given as 95.5. With `COc1cc(NC(C)CCCN)c2ncccc2c1` (stereo not drawn) [Primaquine], the 3D7 under setting [1] was 99.1. `CCCC(C(=O)OCCN(CC)CC)(c1ccccc1)c1ccccc1` [Proadifen]: the 3D7 under setting [1] was 85.9. With `CN1CCN(CCCN2c3ccccc3Sc3ccc(Cl)cc32)CC1` [Prochlorperazine edisylate], the 3D7 was 73.3. For the compound `Nc1ccc2cc3ccc(N)cc3nc2c1` [Proflavine], the 3D7 under setting [1] was 96.2. In the case of `CC(C)NCC(O)c1ccc2ccccc2c1` (stereo not drawn) [Pronetalol], the 3D7 under setting [1] is listed as 95.3. For `CCC(=O)c1ccc2c(c1)N(CC(C)N(C)C)c1ccccc1S2.O=C(O)/C=C\C(=O)O` (stereo not drawn) [Propiomazine maleate], the 3D7 under setting [1] is recorded as 77. Turning to `COc1ccc(C[C@H](N)C(=O)N[C@H]2[C@@H](O)[C@H](n3cnc4c(N(C)C)ncnc43)O[C@@H]2CO)cc1` [Puromycin], the 3D7 under setting [1] is reported as 98.9. On to `CCc1nc(N)nc(N)c1-c1ccc(Cl)cc1` [Pyrimethamine], for which the 3D7 under setting [1] was 96.5.

With `CCN(CC)CCCC(C)Nc1c2ccc(Cl)cc2nc2ccc(OC)cc12` (stereo not drawn) [Quinacrine], the 3D7 under setting [1] is given as 99.2. As for `C=C[C@H]1C[N@@]2CC[C@H]1C[C@@H]2[C@@H](O)c1ccnc2ccc(OC)cc12` [Quinidine], the 3D7 under setting [1] is 88.5. In the case of `C=C[C@H]1CN2CC[C@H]1C[C@H]2[C@H](OC(=O)OCC)c1ccnc2ccc(OC)cc12` [Quinine ethyl carbonate], under setting [1], the 3D7 is reported as 94.5. Take `C=C[C@H]1C[N@@]2CC[C@H]1C[C@H]2[C@H](O)c1ccnc2ccc(OC)cc12` [Quinine]: the 3D7 under setting [1] is 98.3. As to `O=C(c1ccc(OCCN2CCCCC2)cc1)c1c(-c2ccc(O)cc2)sc2cc(O)ccc12` [Raloxifene], the 3D7 under setting [1] was 97.1. As for `CO[C@H]1C[C@@H]2CC[C@@H](C)[C@@](O)(O2)C(=O)C(=O)N2CCCC[C@H]2C(=O)O[C@H]([C@H](C)C[C@@H]2CC[C@@H](O)[C@H](OC)C2)CC(=O)[C@H](C)/C=C(\C)[C@@H](O)[C@@H](OC)C(=O)[C@H](C)C[C@H](C)/C=C/C=C/C=C/1C` [Rapamycin], the 3D7 under setting [1] is recorded as 51.4. For `Cc1nc2n(c(=O)c1CCN1CCC(c3noc4cc(F)ccc34)CC1)CCCC2` [Risperidone], the 3D7 under setting [1] is 67.5.

For the compound `CC(C)c1nc(CN(C)C(=O)N[C@H](C(=O)N[C@@H](Cc2ccccc2)C[C@H](O)[C@H](Cc2ccccc2)NC(=O)OCc2cncs2)C(C)C)cs1` [Ritonavir], under setting [1], the 3D7 is 84.9. On to `C=CC[N+]1([C@H]2C[C@H]3[C@@H]4CC[C@H]5C[C@H](O)[C@@H](N6CCOCC6)C[C@]5(C)[C@H]4CC[C@]3(C)[C@H]2OC(C)=O)CCCC1` [Rocuronium bromide], for which the 3D7 under setting [1] is 52.6.
